# Numbered stars: 1 amine (or outer) side, 2 acyl side, 3 side chain; on linkers, the order of the positions; unused ones are H or OH. Square brackets hold non-standard residues; d marks the D form. Peptide text beside a SMILES is read from it. * marks the point of attachment. ξ: configuration not given here. Gly(1-amidinopiperidin-4-yl) = N=C(N)N1CCC([C@H](N)C(=O)O)CC1; X1 = CC(C)c1oc([C@H](CO)N[*:1])nc1C(=O)[*:2]; Pro(3R-Ph) = O=C(O)[C@H]1NCC[C@@H]1c1ccccc1; Tic = O=C(O)[C@@H]1Cc2ccccc2CN1; Cha = N[C@@H](CC1CCCCC1)C(=O)O; NHPhenethyl = c1ccc(CCN*)cc1; NMe(benzyl) = CN(Cc1ccccc1)*; ξDisc = O=C(O)C1NCc2ccccc21; Nle = CCCC[C@H](N)C(=O)O; X2 = OCCOCCN(Cc1ccccc1)*; NHBn = c1ccc(CN*)cc1; X3 = OCCOCCN*
# Legend:
# [1] = system: DR4 transgenic mice, EAE induced by MOG; experiment: Experimental autoimmune encephalomyelitis (EAE) mouse model for multiple sclerosis; assay type: in vivo; settings: for efficacy in the EAE mouse model for multiple sclerosis prevention: compared to solvent as control, s.c.
# Experimental: EAE is induced in DR4 transgenic mice by injection of myelin oligodendrocyte glycoprotein (MOG) as described by Ito et al. (1996). After disease onset, mice are treated with compounds and studied as below:
# Disease Score • 1. Tail atony • 2. Hind limb weakness • 3. Hind limb paralysis • 4. Hind limb paralysis and fore limb weakness or paralysis • 5. Moribund
# [2] = system: T cell activation from 0404(DR14) chimeric MHCII-mice; experiment: In vivo inhibition of T cell activation by co-immunisation, DR14 mice immunised with OVA; parameters: species or system mouse; % Reduction of response to PPD(OVA): concentration or dose not given beside the values; settings: for % Reduction of response to OVA: DR14 mice co-immunised with OVA plus compound, mean % inhibition from the control over 3 concentrations of antigen (6.7, 20 and 60 ug); for % Reduction of response to PPD(OVA): specificity control: response to PPD in the same cell pool, OVA co-immunised mice
# From the text: (§1) Mouse strains DR4 and DR14 carry chimeric MHC-II transgenes that encode the N-terminal domains of the respective DR molecules (forming the peptide binding site) and the remaining (2nd extracellular domains, transmembrane and intracytoplasmic domains) of the murine class II molecule I Ed. These strains are deficient of other murine class II, and thus, all helper T cell responses are triggered by peptides presented in the respective human MHC-II binding site. As an initial in vivo test of subject inhibitors designed to bind to DR, DR-transgenic mice were co-immunized with a pre-defined dose of protein antigen and different amounts of the compound antagonist to be tested. In this set-up, both antigen and compound were emulsified together in complete Freund's adjuvant (CFA), and thus, a direct competition between the two components for presentation by DR was tested. Readout of the assay is ex vivo antigen-specific activation of T cells from regional lymph nodes explanted 9 days after co-immunization. In a typical experiment, antigen dose-response was investigated, and the curves from mice immunized with antigen were compared to those from mice co-immunized with antigen+compound. The dose response curves were generated using lymph node cells pooled at equal numbers from 2-3 mice per experimental group. The experimental system also permits assessment of inherent antigenicity of the compound antagonist. This was done by setting up a dose-response study from the same cell pool using different concentrations of the compund under investigation instead of the antigen. As a specificity control, the response to Purified Protein Derivative (PPD), the major protein component of CFA, was tested in the same cell pool.
# (§2) All Gpg conataining compounds have significant immunosupressive properties in one or both of the in-vivo models. Gpg-containing compounds also show improved activity or improved specificity over the Arg-containing equivilent. Further, compounds according to Formula I show activity in this assay.
# (§3) Compounds of the invention were injected as an Emulsion prepared using CFA (Bacto Adjuvant Complete H37 Ra, Difco, Order-No. 3113-60); proteins 10 mg/ml in PBS, inhibitors 5 μM in 10% DMSO. CFA, PBS, antigen, and inhibitor were placed in the barrel of a 5-ml syringe (total volume not more than 1 mL). The mixture was sonicated at an amplitude less than 40% (30-35%) for two separated 15 s periods. The emulsion should seem to be hard and not liquid at this point. A drop of emulsion placed on the surface of water should not melt. The resulting emulsion was pushed through the needle into a 1 ml syringe with a needle (Gr.18, 26G×1″), and air bubbles were removed. Mice were co-immunized with 50 μg protein and 210 nM compound antagonist in final 100 μl emulsion into the tail base. Antigen+Compound and CFA are mixed 1:1 vol/vol. The best results are obtained using DR 4 mice immunised with HEL and DR 14 mice immunized with OVA.
# (§4) Mice were injected at the tail-base as follows: Holding the tail of a mouse with thumb and middle finger, the index finger was placed under the base of the mouse's tail. The needle of the syringe was inserted about 1.5 cm from the tail base (hairy end) under the skin and pushed about 1 cm into the tail. 100 μl emulsion was injected into the mouse. After 9 days, mice were killed and lymph nodes removed.
# (§5) The inhibitory effect of the candidate compounds on T-cell activation was tested using T-cells and antigen-presenting cells isolated from the lymph nodes of chimeric DR4-IE transgenic mice (Taconic, USA) previously co-immunized with hen egg lysozyme plus compound, or DR14-IE transgenic mice co-immunized with ovalbumin plus compound according to standard procedures (Adorini et al., 1988, Mueller et al., 1990; Current Protocols in Immunology, Vol. 2, 7.21; Ito et al., 1996). […]
# [3] = system: HLA-DR1 transgenic mice, collagen induced arthritis; experiment: Collagen induced arthritis (CIA) mouse model for rheumatoid arthritis; assay type: in vivo; settings: compared to solvent as control; s.c.
# Experimental: CIA is induced by immunization with type II collagen in HLA-DR1 transgenic mice as described by Rosloniec et al (J. Exp. Med. 1997; 185: 113). After disease onset, mice are treated with compounds at the maximal tolerated dose s.c. for two weeks, and the disease development compared to that in mice treated with solvent only as follows:
# Disease Severity Score • 1. Erythema and mild swelling confined to the tarsals or ankle joint • 2. Erythema and mild swelling extending from the ankle to the tarsals • 3. Erythema and moderate swelling extending from the ankle to the metatarsal joints • 4. Erythema and severe swelling encompass the ankle, foot, and digits
# [4] = system: T cell activation from 0401(DR4) chimeric MHCII-mice; experiment: In vivo inhibition of T cell activation by co-immunisation, DR4 mice immunised with HEL; parameters: species or system mouse; % Reduction of response to PPD(HEL): concentration or dose not given beside the values; settings: for % Reduction of response to HEL: DR4 mice co-immunised with HEL plus compound, mean % inhibition from the control over 3 concentrations of antigen (6.7, 20 and 60 ug); for % Reduction of response to PPD(HEL): specificity control: response to PPD in the same cell pool, HEL co-immunised mice
# From the text: as §1, §2, §3, §4, §5
# Cathepsin L = Cathepsin L (Homo sapiens, UniProt P07711)
# Chain of Cathepsin L (P07711 114-333): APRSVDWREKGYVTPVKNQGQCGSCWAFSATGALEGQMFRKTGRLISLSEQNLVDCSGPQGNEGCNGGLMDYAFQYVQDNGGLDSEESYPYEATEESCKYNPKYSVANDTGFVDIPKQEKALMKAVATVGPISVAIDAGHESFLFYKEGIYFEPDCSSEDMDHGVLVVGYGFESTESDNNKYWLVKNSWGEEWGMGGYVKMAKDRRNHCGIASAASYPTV
Compound,% Reduction of response to OVA [2],% Reduction of response to PPD(OVA) [2],% Reduction of response to HEL [4],% Reduction of response to PPD(HEL) [4],other results
"CCCC[C@H](NC(=O)[C@@H]1Cc2ccccc2CN1C(=O)[C@@H](NC(=O)[C@H](CC1CCCCC1)NC(C)=O)C1CCN(C(=N)N)CC1)C(=O)N(C)Cc1ccccc1 [Compound P74, Ac-Cha-Gpg-Tic-Nle-N(Me)Bn] (Ac-[Cha][Gly(1-amidinopiperidin-4-yl)][Tic][Nle]-{NMe(benzyl)})",42.5%,5.8%,51.6%,12.8%,efficacy in the EAE mouse model for multiple sclerosis prevention [1]: Efficacy; efficacy in the CIA mouse model for rheumatoid arthritis [3]: Efficacy
"CCCC[C@H](NC(=O)[C@@H]1Cc2ccccc2CN1C(=O)[C@@H](NC(=O)[C@H](CC1CCCCC1)NC(C)=O)C1CCN(C(=N)N)CC1)C(=O)NCCOCCO [Compound P70, Ac-Cha-Gpg-Tic-Nle-N(H)CH2CH2OCH2CH2OH] (Ac-[Cha][Gly(1-amidinopiperidin-4-yl)][Tic][Nle]-X3)",56.1%,52.3%,–,–,–
"CCCC[C@H](NC(=O)[C@@H]1Cc2ccccc2CN1C(=O)[C@H](CCCNC(=N)N)NC(=O)[C@H](CC1CCCCC1)NC(C)=O)C(=O)N(C)Cc1ccccc1 [Compound P71, Ac-Cha-Arg-Tic-Nle-N(Me)Bn] (Ac-[Cha]R[Tic][Nle]-{NMe(benzyl)})",48.8%,21.8%,78.1%,62.1%,–
"CSCC[C@H](NC(=O)[C@@H]1Cc2ccccc2CN1C(=O)[C@@H](NC(=O)[C@H](CC1CCCCC1)NC(C)=O)C1CCN(C(=N)N)CC1)C(=O)N1CC[C@H](c2ccccc2)[C@H]1C(=O)N[C@@H](CO)c1nc(C(=O)N(C)C)c(C(C)C)o1 [Compound P60, Ac-Cha-Gpg-Tic-Met-βPhPro-[S(oxaz)L]-NMe2] (Ac-[Cha][Gly(1-amidinopiperidin-4-yl)][Tic]M[Pro(3R-Ph)][X1]-NMe2)",50.3%,28.1%,–,–,–
"CSCC[C@H](NC(=O)[C@@H]1Cc2ccccc2CN1C(=O)[C@H](CCCNC(=N)N)NC(=O)[C@H](CC1CCCCC1)NC(C)=O)C(=O)N1CC[C@H](c2ccccc2)[C@H]1C(N)=O [Compound P31, Ac-Cha-Arg-Tic-Met-βPhPro-NH2] (Ac-[Cha]R[Tic]M[Pro(3R-Ph)]-NH2)",–,–,–,–,Stability (Arbitrary units) Cath L 4 h (Cathepsin L): 103 Arbitrary units
"CCCC[C@H](NC(=O)[C@@H]1Cc2ccccc2CN1C(=O)[C@@H](NC(=O)[C@H](CC1CCCCC1)NC(C)=O)C1CCN(C(=N)N)CC1)C(=O)N(CCOCCO)Cc1ccccc1 [Compound P101, Ac-Cha-Gpg-Tic-Nle-N(Bn)CH2CH2OCH2CH2OH] (Ac-[Cha][Gly(1-amidinopiperidin-4-yl)][Tic][Nle]-X2)",–,–,49.7%,41.1%,–
"CSCC[C@H](NC(=O)[C@@H]1Cc2ccccc2CN1C(=O)[C@H](CCCNC(=N)N)NC(=O)[C@H](CC1CCCCC1)NC(C)=O)C(N)=O [Compound P1, Ac-Cha-Arg-Tic-Met-NH2] (Ac-[Cha]R[Tic]M-NH2)",–,–,–,–,Stability (Arbitrary units) Cath L 4 h (Cathepsin L): 117 Arbitrary units
"CCCC[C@H](NC(=O)[C@@H]1Cc2ccccc2CN1C(=O)[C@@H](NC(=O)[C@H](CC1CCCCC1)NC(C)=O)C1CCN(C(=N)N)CC1)C(=O)NCCc1ccccc1 [Compound P69, Ac-Cha-Gpg-Tic-Nle-N(H)CH2CH2Ph] (Ac-[Cha][Gly(1-amidinopiperidin-4-yl)][Tic][Nle]-NHPhenethyl)",65.3%,9%,59%,2%,"efficacy in the EAE mouse model in terms of disease treatment, versus Arg compound ([1]; P69 at 125 nM compared to P82 at 250 nM): superior; efficacy in the EAE mouse model for multiple sclerosis prevention [1]: Efficacy; in-vivo immunosuppressive properties following co-immunisation with antigen as measured by T-cell proliferation ([2]; compared to the Arg-containing equivalent, antigen/mouse strain not stated in the legend): Superior in-vivo immunosuppressive properties; efficacy in the CIA mouse model for rheumatoid arthritis [3]: Efficacy"
"CCCC[C@H](NC(=O)[C@@H]1Cc2ccccc2CN1C(=O)[C@@H](NC(=O)[C@H](CC1CCCCC1)NC(C)=O)C1CCN(C(=N)N)CC1)C(=O)NCc1ccccc1 [Compound P68, Ac-Cha-Gpg-Tic-Nle-N(H)Bn] (Ac-[Cha][Gly(1-amidinopiperidin-4-yl)][Tic][Nle]-NHBn)",95.3%,65.9%,−3.2%,25.1%,–
"CCCC[C@H](NC(=O)[C@@H]1Cc2ccccc2CN1C(=O)[C@H](CCCNC(=N)N)NC(=O)[C@H](CC1CCCCC1)NC(C)=O)C(=O)N1CC[C@H](c2ccccc2)[C@H]1C(=O)N[C@@H](CO)c1nc(C(=O)N(C)C)c(C(C)C)o1 [Compound P51, Ac-Cha-Arg-Tic-Nle-βPhPro-[S(oxaz)L]-NMe2] (Ac-[Cha]R[Tic][Nle][Pro(3R-Ph)][X1]-NMe2)",43.1%,3.5%,–,–,–
"CSCC[C@H](NC(=O)C1c2ccccc2CN1C(=O)[C@@H](NC(=O)[C@H](CC1CCCCC1)NC(C)=O)C1CCN(C(=N)N)CC1)C(=O)N1CC[C@H](c2ccccc2)[C@H]1C(=O)N[C@@H](CO)c1nc(C(=O)N(C)C)c(C(C)C)o1 (stereo partly drawn) [Compound P41-1, Ac-Cha-Gpg-Disc-Met-βPhPro-[S(oxaz)L]-NMe2] (Ac-[Cha][Gly(1-amidinopiperidin-4-yl)][ξDisc]M[Pro(3R-Ph)][X1]-NMe2)",50.1%,21.6%,–,–,–
"CSCC[C@H](NC(=O)C1c2ccccc2CN1C(=O)[C@H](CCCNC(=N)N)NC(=O)[C@H](CC1CCCCC1)NC(C)=O)C(N)=O (stereo partly drawn) [Compound P12-1, Ac-Cha-Arg-Disc-Met-NH2] (Ac-[Cha]R[ξDisc]M-NH2)",–,–,–,–,Stability (Arbitrary units) Cath L 4 h (Cathepsin L): 101 Arbitrary units
"CSCC[C@H](NC(=O)[C@@H]1Cc2ccccc2CN1C(=O)[C@@H](NC(=O)[C@H](CC1CCCCC1)NC(C)=O)C1CCN(C(=N)N)CC1)C(=O)N(CCOCCO)Cc1ccccc1 [Compound P102, Ac-Cha-Gpg-Tic-Met-N(Bn)CH2CH2OCH2CH2OH] (Ac-[Cha][Gly(1-amidinopiperidin-4-yl)][Tic]M-X2)",–,–,41.3%,31.2%,–
